Experimental data: patent publication US11072588B2, “Barbituric acid derivatives comprising cationic and lipophilic groups” (UNIVERSITETET I TROMSØ—NORGES ARKTISKE UNIVERSITET, priority 2017, dated 2021)
In brackets after ≈: the same amount, converted by molar mass. Like-named read-outs stand apart in the source and are kept apart here.

How the values were obtained:
[1] = test system: P. aeruginosa K34-7; assay: MIC, multi-resistant clinical isolate; assay type: cell-based, Pseudomonas aeruginosa; details: for MIC: Pseudomonas aeruginosa, K347, read-out: Antimicrobial activity (MIC); for selectivity index (EC50/MIC): RBC EC50 / MIC, P. aeruginosa K34-7
Protocol: (§1) Working solutions of the test derivatives were prepared with up to 100% DMSO and stored at −20° C. If necessary, the solutions were heated to 40-80° C. before testing to facilitate complete dissolution. Double-distilled water was used in all dilutions prepared. […] A microdilution susceptibility test was used for MIC determination according to Clinical and Laboratory Standards Institute, “Methods for Dilution Antimicrobial Sisceptibility Tests for Bacteria That Graw Aerobically”, Approved Standard M07-A9, edition 2012, with modifications as described by Igumnova et al (Bioorg Med Chem, 2016, 24 (22), 5884-5894).
(§2) Briefly, the bacterial inoculum was adjusted to approximately 2.5-3×10^4 cells/mL in Mueller-Hinton broth (MHB, Difco Laboratories, USA), and incubated in a ratio of 1:1 with test derivatives in polystyrene 96-well flat-bottom microplates (NUNC, Roskilde, Denmark). Positive growth control (without test derivatives) and negative control (without bacteria) were included. The reference antibiotic was oxytetracycline hydrochloride (Sigma Aldrich, Saint Louis, Mo., USA). The microplates were incubated in an EnVision microplate reader (Perkin-Elmer, Turku, Finland) placed in an incubator set to 35° C. for 48 h. The MIC value was defined as the lowest concentration of derivative resulting in no bacterial growth as determined by OD600 measurement. All derivatives were tested in three parallels.
(§3) The MIC was determined as explained above with some exceptions; working solutions of test derivatives were prepared from concentrated DMSO stocks stored at room temperature, the density of the bacterial inoculum was increased 40× to 1-1.2×10^6 cells/mL, enterococci were incubated in Brain Heart Infusion broth (BHIB, Difco Laboratories, USA), the microplates were incubated for 24 h, and the derivatives were tested in four parallels.

[2] = test system: P. aeruginosa 50692520; assay: MIC, multi-resistant clinical isolate; assay type: cell-based, Pseudomonas aeruginosa; details: for MIC: Pseudomonas aeruginosa, read-out: Antimicrobial activity (MIC); for selectivity index (EC50/MIC): RBC EC50 / MIC
Protocol: as §1, §2, §3

[3] = test system: P. aeruginosa K44-24; assay: MIC, multi-resistant clinical isolate; assay type: cell-based, Pseudomonas aeruginosa; details: for MIC: Pseudomonas aeruginosa, K4424, read-out: Antimicrobial activity (MIC); for selectivity index (EC50/MIC): RBC EC50 / MIC
Protocol: as §1, §2, §3

[4] = test system: E. coli 50579417; assay: MIC, multi-resistant clinical isolate; assay type: cell-based, Escherichia coli; details: for MIC: Escherichia coli, read-out: Antimicrobial activity (MIC); for selectivity index (EC50/MIC): RBC EC50 / MIC
Protocol: as §1, §2, §3

[5] = test system: E. coli 50676002; assay: MIC, multi-resistant clinical isolate; assay type: cell-based, Escherichia coli; details: E. coli 50676002; for MIC: Escherichia coli, read-out: Antimicrobial activity (MIC); for selectivity index (EC50/MIC): RBC EC50 / MIC
Protocol: as §1, §2, §3

[6] = test system: E. coli 50739822; assay: MIC, multi-resistant clinical isolate; assay type: cell-based, Escherichia coli; details: for MIC: Escherichia coli, read-out: Antimicrobial activity (MIC); for selectivity index (EC50/MIC): RBC EC50 / MIC
Protocol: as §1, §2, §3

[7] = test system: E. coli 50639799; assay: MIC, multi-resistant clinical isolate; assay type: cell-based, Escherichia coli; details: for MIC: Escherichia coli, read-out: Antimicrobial activity (MIC); for selectivity index (EC50/MIC): RBC EC50 / MIC
Protocol: as §1, §2, §3

[8] = test system: E. coli 50857972; assay: MIC, multi-resistant clinical isolate; assay type: cell-based, Escherichia coli; details: for MIC: Escherichia coli, read-out: Antimicrobial activity (MIC); for selectivity index (EC50/MIC): RBC EC50 / MIC
Protocol: as §1, §2, §3

[9] = test system: panel of 30 multi-resistant clinical isolates of Gram-positive and Gram-negative bacteria; assay: MIC screening, ranges over the panel of clinical isolates; assay type: cell-based
Protocol: as §1, §2, §3

[10] = test system: E. faecium 50758899; assay: MIC, multi-resistant clinical isolate; assay type: cell-based, Enterococcus faecium; details: for MIC: Enterococcus faecium, read-out: Antimicrobial activity (MIC); for selectivity index (EC50/MIC): RBC EC50 / MIC
Protocol: as §1, §2, §3

[11] = test system: E. faecium TUH50-22; assay: MIC, multi-resistant clinical isolate; assay type: cell-based, Enterococcus faecium; details: for MIC: Enterococcus faecium, TUH5022, read-out: Antimicrobial activity (MIC); for selectivity index (EC50/MIC): RBC EC50 / MIC
Protocol: as §1, §2, §3

[12] = test system: E. faecium K36-18; assay: MIC, multi-resistant clinical isolate; assay type: cell-based, Enterococcus faecium; details: for MIC: Enterococcus faecium, K3618, read-out: Antimicrobial activity (MIC); for selectivity index (EC50/MIC): RBC EC50 / MIC, E. faecium K36-18
Protocol: as §1, §2, §3

[13] = test system: E. faecium 50901530; assay: MIC, multi-resistant clinical isolate; assay type: cell-based, Enterococcus faecium; details: for MIC: Enterococcus faecium, read-out: Antimicrobial activity (MIC); for selectivity index (EC50/MIC): RBC EC50 / MIC
Protocol: as §1, §2, §3

[14] = test system: E. faecium 50673722; assay: MIC, multi-resistant clinical isolate; assay type: cell-based, Enterococcus faecium; details: for MIC: Enterococcus faecium, read-out: Antimicrobial activity (MIC); for selectivity index (EC50/MIC): RBC EC50 / MIC
Protocol: as §1, §2, §3

[15] = test system: human metastatic melanoma (A2058, ATCC CRL-11147) cells; assay: Anti-cancer activity against A2058 cells; assay type: cell-based; details: A2058, read-out: Anti-cancer IC50
How it was run: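 A2058 melanoma cells seeded at 2,000/well overnight, then exposed to a concentration range in serum-free MEM (gentamycin, NEAA, pyruvate, glutamine) for 24 h (cytotoxicity stated as after 72 h exposure). MTS-type tetrazolium reagent added for 1 h; absorbance at 485 nm; % survival versus medium and Triton X-100 controls.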

[16] = test system: S. aureus NCTC 10442; assay: MIC, multi-resistant clinical isolate; assay type: cell-based, Staphylococcus aureus; details: for selectivity index (EC50/MIC): RBC EC50 / MIC, S. aureus NCTC 10442; for MIC: Staphylococcus aureus, NCTC10442, read-out: Antimicrobial activity (MIC)
Protocol: as §1, §2, §3

[17] = test system: S. aureus strain WIS; assay: MIC, multi-resistant clinical isolate; assay type: cell-based, Staphylococcus aureus; details: for selectivity index (EC50/MIC): RBC EC50 / MIC, S. aureus strain WIS; for MIC: Staphylococcus aureus, read-out: Antimicrobial activity (MIC)
Protocol: as §1, §2, §3

[18] = test system: S. aureus IHT 99040; assay: MIC, multi-resistant clinical isolate; assay type: cell-based, Staphylococcus aureus; details: for selectivity index (EC50/MIC): RBC EC50 / MIC; for MIC: Staphylococcus aureus, IHT99040, read-out: Antimicrobial activity (MIC)
Protocol: as §1, §2, §3

[19] = test system: S. aureus strain 85/2082; assay: MIC, multi-resistant clinical isolate; assay type: cell-based, Staphylococcus aureus; details: for selectivity index (EC50/MIC): RBC EC50 / MIC, S. aureus strain 85/2082; for MIC: Staphylococcus aureus, 85/2082, read-out: Antimicrobial activity (MIC)
Protocol: as §1, §2, §3

[20] = test system: S. aureus N315; assay: MIC, multi-resistant clinical isolate; assay type: cell-based, Staphylococcus aureus; details: for selectivity index (EC50/MIC): RBC EC50 / MIC, S. aureus N315; for MIC: Staphylococcus aureus, N315, read-out: Antimicrobial activity (MIC)
Protocol: as §1, §2, §3

Row | SMILES | MIC [1] [µg/mL] | selectivity index (EC50/MIC) [1] | MIC [2] [µg/mL] | selectivity index (EC50/MIC) [2] | MIC [3] [µg/mL] | selectivity index (EC50/MIC) [3] | MIC [4] [µg/mL] | selectivity index (EC50/MIC) [4] | MIC [5] [µg/mL] | selectivity index (EC50/MIC) [5] | MIC [6] [µg/mL] | selectivity index (EC50/MIC) [6] | MIC [7] [µg/mL] | selectivity index (EC50/MIC) [7] | MIC [8] [µg/mL] | selectivity index (EC50/MIC) [8] | MIC [10] [µg/mL] | selectivity index (EC50/MIC) [10] | MIC [11] [µg/mL] | selectivity index (EC50/MIC) [11] | also measured
1 | N=C(N)NCCCCN1C(=O)N(CCCCNC(=N)N)C(=O)C(Cc2cc(Br)cc(Br)c2)(Cc2cc(Br)cc(Br)c2)C1=O [8(ii), 1,1′-(4,4′-(5,5-bis(3,5-dibromobenzyl)-2,4,6-trioxodihydropyrimidine-1,3(2H,4H)-diyl)bis(butane-4,1-diyl))diguanidine] | 8 (≈ 9.41 µM) | (7) | 16 (≈ 18.8 µM) | (4) | 8 (≈ 9.41 µM) | (7) | 4 (≈ 4.7 µM) | (14) | 4 (≈ 4.7 µM) | (14) | 4 (≈ 4.7 µM) | (14) | 4 (≈ 4.7 µM) | (14) | 4 (≈ 4.7 µM) | (14) | 4 (≈ 4.7 µM) | (14) | 2 (≈ 2.35 µM) | (28) | MIC ([9]; read-out: MIC values against all the 30 multi-resistant clinical isolates): 2 to 16 µg/mL (≈ 2.35 to 18.8 µM); MIC [12]: 4 µg/mL (≈ 4.7 µM); selectivity index (EC50/MIC) [12]: (14); MIC [13]: 2 µg/mL (≈ 2.35 µM); selectivity index (EC50/MIC) [13]: (28); MIC [14]: 4 µg/mL (≈ 4.7 µM); selectivity index (EC50/MIC) [14]: (14); IC50 [15]: 2 µg/mL (≈ 2.35 µM); selectivity index (EC50/MIC) [16]: (28); MIC [16]: 2 µg/mL (≈ 2.35 µM); selectivity index (EC50/MIC) [17]: (28); MIC [17]: 2 µg/mL (≈ 2.35 µM); selectivity index (EC50/MIC) [18]: (28); MIC [18]: 2 µg/mL (≈ 2.35 µM); selectivity index (EC50/MIC) [19]: (28); MIC [19]: 2 µg/mL (≈ 2.35 µM); selectivity index (EC50/MIC) [20]: (28); MIC [20]: 2 µg/mL (≈ 2.35 µM)
2 | N=C(N)NCCCCN1C(=O)N(CCCCNC(=N)N)C(=O)C(Cc2ccc3ccccc3c2)(Cc2ccc3ccccc3c2)C1=O [8(iv), 1,1′-(4,4′-(5,5-bis(naphthalen-2-ylmethyl)-2,4,6-trioxodihydropyrimidine-1,3(2H,4H)-diyl)bis(butane-4,1-diyl))-diguanidine] | 32 (≈ 50.4 µM) | (4) | 32 (≈ 50.4 µM) | (4) | 32 (≈ 50.4 µM) | (4) | 16 (≈ 25.2 µM) | (8) | 8 (≈ 12.6 µM) | (17) | 8 (≈ 12.6 µM) | (17) | 8 (≈ 12.6 µM) | (17) | 8 (≈ 12.6 µM) | (17) | 16 (≈ 25.2 µM) | (8) | 8 (≈ 12.6 µM) | (17) | MIC ([9]; Enterococcus faecium, read-out: MIC values against the Gram-positive isolates of S. aurues and E. faecium): 8 to 16 µg/mL (≈ 12.6 to 25.2 µM); MIC [12]: 16 µg/mL (≈ 25.2 µM); selectivity index (EC50/MIC) [12]: (8); MIC [13]: 8 µg/mL (≈ 12.6 µM); selectivity index (EC50/MIC) [13]: (17); MIC [14]: 16 µg/mL (≈ 25.2 µM); selectivity index (EC50/MIC) [14]: (8); IC50 [15]: 8 µg/mL (≈ 12.6 µM); selectivity index (EC50/MIC) [16]: (17); MIC [16]: 8 µg/mL (≈ 12.6 µM); selectivity index (EC50/MIC) [17]: (17); MIC [17]: 8 µg/mL (≈ 12.6 µM); selectivity index (EC50/MIC) [18]: (17); MIC [18]: 8 µg/mL (≈ 12.6 µM); selectivity index (EC50/MIC) [19]: (17); MIC [19]: 8 µg/mL (≈ 12.6 µM); selectivity index (EC50/MIC) [20]: (17); MIC [20]: 8 µg/mL (≈ 12.6 µM)
